# In PubChem BioAssay (NCI):
#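 Method: 48-hour compound exposure of cells in 96-well plates, five concentrations, linear interpolation of endpoints. The concentration for full growth arrest is given as TGI.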
# Assays:
# Test in all cases: NCI anticancer screen, dose series, 48 h
# [1] = tested on: HCT-15 colon
# [2] = tested on: SR leukemia
# [3] = tested on: MDA-N
# [4] = tested on: IGROV1 ovarian
# [5] = tested on: SN12C renal
# [6] = tested on: SF-295 CNS
# [7] = tested on: UO-31 renal
# [8] = tested on: DU-145 prostate
# [9] = tested on: SF-539 CNS
# [10] = tested on: HS 578T breast
# [11] = tested on: KM12 colon
# [12] = tested on: K-562 leukemia
# [13] = tested on: MOLT-4 leukemia
# [14] = tested on: M14 melanoma
# [15] = tested on: BT-549 breast
# [16] = tested on: HT29 colon
# [17] = tested on: HOP-62 NSCLC
# [18] = tested on: NCI/ADR-RES ovarian
# [19] = tested on: SW-620 colon
# [20] = tested on: NCI-H522 lung
# [21] = tested on: HCT-116 colon
# [22] = tested on: HCC-2998 colon
# [23] = tested on: SK-MEL-5 melanoma
# [24] = tested on: MDA-MB-231 breast
# [25] = tested on: SF-268 CNS
# [26] = tested on: OVCAR-3 ovarian
# [27] = tested on: NCI-H226 lung
# [28] = tested on: A498 renal
# [29] = tested on: SK-MEL-2 melanoma
# [30] = tested on: NCI-H460 lung
# [31] = tested on: COLO 205 colon
# [32] = tested on: UACC-257 melanoma
# [33] = tested on: 786-0 renal
# [34] = tested on: SNB-75 CNS
# [35] = tested on: UACC-62 melanoma
# [36] = tested on: MCF7 breast
# [37] = tested on: U251 CNS
# [38] = tested on: RXF 393 renal
# [39] = tested on: PC-3 prostate
# [40] = tested on: T-47D breast
# [41] = tested on: CAKI-1 renal
# [42] = tested on: A549 NSCLC
# [43] = tested on: HL-60(TB) leukemia
# [44] = tested on: HOP-92 NSCLC
# [45] = tested on: OVCAR-5 ovarian
# [46] = tested on: SK-OV-3 ovarian
# [47] = tested on: OVCAR-4 ovarian
# [48] = tested on: TK-10 renal
# [49] = tested on: NCI-H23 lung
# [50] = tested on: ACHN renal
# [51] = tested on: OVCAR-8 ovarian
# [52] = tested on: CCRF-CEM leukemia
# [53] = tested on: RPMI-8226 leukemia
# [54] = tested on: SNB-19 CNS
# [55] = tested on: EKVX NSCLC
# [56] = tested on: LOX IMVI melanoma
# [57] = tested on: MDA-MB-435
# [58] = tested on: SK-MEL-28 melanoma
# [59] = tested on: MALME-3M melanoma
structure (smiles),measurement,setting,value
COC1=CC(=O)c2c(c(-c3csc(C)n3)cn2C)C1=O,TGI,[1],> 52.5 µM
same,TGI,[2],> 100 µM
same,TGI,[3],35.1 µM
same,TGI,[4],72.2 µM
same,TGI,[5],> 68.9 µM
same,TGI,[6],> 67.1 µM
same,TGI,[7],> 73.4 µM
same,TGI,[8],> 45.9 µM
same,TGI,[9],54.7 µM
same,TGI,[10],> 100 µM
same,TGI,[11],> 100 µM
same,TGI,[12],> 100 µM
same,TGI,[13],> 100 µM
same,TGI,[14],> 100 µM
same,TGI,[15],> 100 µM
same,TGI,[16],91.6 µM
same,TGI,[17],> 68.4 µM
same,TGI,[18],> 79.1 µM
same,TGI,[19],> 100 µM
same,TGI,[20],91.4 µM
same,TGI,[21],> 77.5 µM
same,TGI,[22],> 100 µM
same,TGI,[23],4.97 µM
same,TGI,[24],> 86.6 µM
same,TGI,[25],> 100 µM
same,TGI,[26],36.4 µM
same,TGI,[27],> 100 µM
same,TGI,[28],72.6 µM
same,TGI,[29],> 63.8 µM
same,TGI,[30],19.9 µM
same,TGI,[31],> 71.1 µM
same,TGI,[32],32.6 µM
same,TGI,[33],> 76.7 µM
same,TGI,[34],19 µM
same,TGI,[35],42.5 µM
same,TGI,[36],> 69.5 µM
same,TGI,[37],> 100 µM
same,TGI,[38],43.3 µM
same,TGI,[39],> 68.6 µM
same,TGI,[40],> 64.3 µM
same,TGI,[41],> 73.5 µM
same,TGI,[42],> 41.6 µM
same,TGI,[43],23.9 µM
same,TGI,[44],> 100 µM
same,TGI,[45],> 95 µM
same,TGI,[46],> 100 µM
same,TGI,[47],> 100 µM
same,TGI,[48],> 100 µM
same,TGI,[49],15 µM
same,TGI,[50],> 71.9 µM
same,TGI,[51],> 94.8 µM
same,TGI,[52],> 94.4 µM
same,TGI,[53],> 19.8 µM
same,TGI,[54],> 81.2 µM
same,TGI,[55],77.9 µM
same,TGI,[56],> 100 µM
same,TGI,[57],26.8 µM
same,TGI,[58],> 100 µM
CCOC(=O)CNC(=O)C(CSCC1C(=O)Nc2ccccc21)NC(=O)CCC(N)C(=O)OCC (centres undefined),TGI,[1],2.53 µM
same,TGI,[2],0.546 µM
same,TGI,[3],5.01 µM
same,TGI,[4],2.83 µM
same,TGI,[5],3.64 µM
same,TGI,[6],6.31 µM
same,TGI,[7],2.74 µM
same,TGI,[8],34.4 µM
same,TGI,[9],0.608 µM
same,TGI,[10],17.6 µM
same,TGI,[11],8.33 µM
same,TGI,[12],0.948 µM
same,TGI,[14],4.01 µM
same,TGI,[15],7.14 µM
same,TGI,[16],3.02 µM
same,TGI,[17],4.99 µM
same,TGI,[18],3.02 µM
same,TGI,[19],2.73 µM
same,TGI,[20],3.59 µM
same,TGI,[21],2.97 µM
same,TGI,[23],3.26 µM
same,TGI,[24],3.48 µM
same,TGI,[25],6.44 µM
same,TGI,[26],5.65 µM
same,TGI,[27],5.44 µM
same,TGI,[28],8.19 µM
same,TGI,[29],4.51 µM
same,TGI,[30],20.9 µM
same,TGI,[31],2.54 µM
same,TGI,[32],14.3 µM
same,TGI,[33],4.28 µM
same,TGI,[35],2.92 µM
same,TGI,[36],3.46 µM
same,TGI,[37],2.73 µM
same,TGI,[38],2.72 µM
same,TGI,[39],4.9 µM
same,TGI,[40],> 100 µM
same,TGI,[41],2.4 µM
same,TGI,[42],6.63 µM
same,TGI,[43],4.7 µM
same,TGI,[44],5.03 µM
same,TGI,[45],3.65 µM
same,TGI,[59],4.89 µM
same,TGI,[47],9.11 µM
same,TGI,[48],5.14 µM
same,TGI,[49],5.62 µM
same,TGI,[50],3.74 µM
same,TGI,[51],11.4 µM
same,TGI,[52],0.79 µM
same,TGI,[53],3.09 µM
same,TGI,[54],20 µM
same,TGI,[55],4.47 µM
same,TGI,[56],1.64 µM
same,TGI,[57],3.19 µM
same,TGI,[58],3.59 µM
CC(=O)N(C)C(C(=O)N1CC(C)CC1C(=O)N(C)C1C(=O)NC(CC(C)C)C(=O)N2CC(C)CC2C(=O)NC(CC(C)C)C(=O)N(C)C(C(C)C)C(=O)N2CCCC2C(=O)N(C)C(CC(C)C)C(=O)NCC(=O)OC1C)C(C)C (centres undefined),TGI,[1],> 100 µM
same,TGI,[2],> 100 µM
same,TGI,[3],> 100 µM
same,TGI,[4],> 100 µM
same,TGI,[5],> 100 µM
same,TGI,[6],> 100 µM
same,TGI,[7],> 100 µM
same,TGI,[8],> 100 µM
same,TGI,[9],> 100 µM
same,TGI,[10],> 100 µM
same,TGI,[11],> 100 µM
same,TGI,[12],> 100 µM
same,TGI,[13],> 100 µM
same,TGI,[14],> 100 µM
same,TGI,[15],> 100 µM
same,TGI,[16],> 100 µM
same,TGI,[17],> 100 µM
same,TGI,[18],> 100 µM
same,TGI,[19],> 100 µM
same,TGI,[20],> 100 µM
same,TGI,[21],> 100 µM
same,TGI,[22],> 100 µM
same,TGI,[23],> 100 µM
same,TGI,[24],> 100 µM
same,TGI,[25],> 100 µM
same,TGI,[26],> 100 µM
same,TGI,[27],> 100 µM
same,TGI,[28],> 100 µM
same,TGI,[29],> 100 µM
same,TGI,[30],> 100 µM
same,TGI,[31],> 100 µM
same,TGI,[32],> 100 µM
same,TGI,[33],> 100 µM
same,TGI,[34],> 100 µM
same,TGI,[35],> 100 µM
same,TGI,[36],> 100 µM
same,TGI,[37],> 100 µM
same,TGI,[38],> 100 µM
same,TGI,[39],> 100 µM
same,TGI,[40],> 100 µM
same,TGI,[41],> 100 µM
same,TGI,[42],> 100 µM
same,TGI,[43],> 100 µM
same,TGI,[44],> 100 µM
same,TGI,[45],> 100 µM
same,TGI,[46],> 100 µM
same,TGI,[47],> 100 µM
same,TGI,[48],> 100 µM
same,TGI,[49],> 100 µM
same,TGI,[50],> 100 µM
same,TGI,[51],> 100 µM
same,TGI,[52],> 100 µM
same,TGI,[53],> 100 µM
same,TGI,[54],> 100 µM
same,TGI,[55],> 100 µM
same,TGI,[56],> 100 µM
same,TGI,[57],> 100 µM
same,TGI,[58],> 100 µM
CCOC(=O)c1c(Sc2ccc([N+](=O)[O-])cc2[N+](=O)[O-])nc2c3ccccc3ccn12,TGI,[1],> 100 µM
same,TGI,[2],> 100 µM
same,TGI,[3],> 100 µM
same,TGI,[4],> 31.6 µM
same,TGI,[5],> 100 µM
same,TGI,[6],> 100 µM
same,TGI,[7],> 100 µM
same,TGI,[8],> 100 µM
same,TGI,[9],> 94.8 µM
same,TGI,[10],> 92.3 µM
same,TGI,[11],> 100 µM
same,TGI,[12],> 100 µM
same,TGI,[13],> 100 µM
same,TGI,[14],> 100 µM
same,TGI,[15],> 100 µM
same,TGI,[16],> 100 µM
same,TGI,[17],> 59.4 µM
same,TGI,[18],> 100 µM
same,TGI,[19],> 100 µM
same,TGI,[20],> 100 µM
same,TGI,[21],> 100 µM
same,TGI,[22],> 100 µM
same,TGI,[23],> 100 µM
same,TGI,[24],> 100 µM
same,TGI,[25],> 100 µM
same,TGI,[26],> 100 µM
same,TGI,[27],> 100 µM
same,TGI,[28],> 100 µM
same,TGI,[29],> 100 µM
same,TGI,[30],> 100 µM
same,TGI,[31],> 100 µM
same,TGI,[32],> 100 µM
same,TGI,[33],> 38.6 µM
same,TGI,[34],> 100 µM
same,TGI,[35],> 65.9 µM
same,TGI,[36],> 100 µM
same,TGI,[37],> 100 µM
same,TGI,[38],> 92.9 µM
same,TGI,[39],> 100 µM
same,TGI,[40],> 100 µM
same,TGI,[41],> 100 µM
same,TGI,[42],> 100 µM
same,TGI,[43],> 100 µM
same,TGI,[44],41.3 µM
same,TGI,[45],> 100 µM
same,TGI,[46],69.7 µM
same,TGI,[47],> 100 µM
same,TGI,[48],> 100 µM
same,TGI,[49],> 100 µM
same,TGI,[50],> 100 µM
same,TGI,[51],> 100 µM
same,TGI,[52],> 100 µM
same,TGI,[53],> 100 µM
same,TGI,[54],> 100 µM
same,TGI,[55],> 100 µM
same,TGI,[56],> 100 µM
same,TGI,[57],> 100 µM
same,TGI,[58],> 100 µM
